According to ChEMBL document CHEMBL1201862, “PubChem BioAssay data set” (2004):
The source made the active and inactive calls.

How the values were obtained:
[1] = target: Lysosomal acid glucosylceramidase (Homo sapiens, UniProt P04062); assay: Dose response cell-based high throughput screening assay to identify enhancers of beta-glucosidase activity. [Related pubchem assays: 784 ]; format: functional
[2] = target: X-box-binding protein 1 (Homo sapiens, UniProt P17861); format: functional, Cricetulus griseus;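 also: confirmatory dose-response counter-screen serving a CHOP assay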
[3] = system: J774.A1; assay: Confirmation of image-based Screening Assay for Inhibitors of Phagocytosis. [Related pubchem assays (depositor defined):AID1029, AID1643]; format: functional, cell-based; details: Mus musculus
[4] = cytotoxicity in HEK-293T cells, dose response, cytotoxicity control for TCR NF-kB inhibitor project, luminescence, T-cell screen hits (AID 489026); format: functional, cell-based;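 also: cells exposed to compound about 14 hours before the viability readout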
[5] = inhibitors of firefly luciferase expression or activity, dose response, H4 neuroglioma cells, luminescence (AID 1990); format: functional, cell-based
[6] = system: BJ; assay: cytotoxicity toward BJ-TERT fibroblasts, dose response, cell-based, RAS-independent, luminescence (AID 1933); format: functional; details: Homo sapiens
[7] = Luminescence Cell-Based Dose Response HTS to Identify Inhibitors of 5'UTR Stem-Loop Driven Prion Protein mRNA Translation in H4 Neuroglioblastoma Cells. [Related pubchem assays: 1827 (Project Summary), 1813 (Primary HTS)]; format: functional
[8] = target: T1, Heat shock factor protein 1 (Mus musculus, UniProt P38532); assay: inhibition of MG132-induced HSE-luciferase signal, confirmation, cell-based, NIH3T3, luminescence, dose retest (AID 2382); format: functional;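 also: NIH3T3 fibroblasts with HSF1-driven luciferase reporter stressed by proteasome inhibitor MG132; luminescence from HSF1-driven luciferase expression after 8 hours of MG132 stress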
T1 sequence (P38532 whole entry): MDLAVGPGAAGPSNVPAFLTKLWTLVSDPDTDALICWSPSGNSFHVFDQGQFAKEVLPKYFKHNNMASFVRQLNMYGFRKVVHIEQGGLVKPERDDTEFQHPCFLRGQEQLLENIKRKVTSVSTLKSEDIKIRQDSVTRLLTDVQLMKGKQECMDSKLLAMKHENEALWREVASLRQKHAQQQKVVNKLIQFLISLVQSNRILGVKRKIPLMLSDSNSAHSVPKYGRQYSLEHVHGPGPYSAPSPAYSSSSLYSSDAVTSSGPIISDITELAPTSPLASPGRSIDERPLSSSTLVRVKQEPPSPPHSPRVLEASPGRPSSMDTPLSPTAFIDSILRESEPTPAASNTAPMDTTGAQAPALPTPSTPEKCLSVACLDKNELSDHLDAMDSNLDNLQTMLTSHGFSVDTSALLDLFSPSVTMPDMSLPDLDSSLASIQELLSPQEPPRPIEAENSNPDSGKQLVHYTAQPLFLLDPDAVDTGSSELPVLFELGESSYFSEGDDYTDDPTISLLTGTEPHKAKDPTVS

[9] = inhibitors of SNCA 5'UTR-driven reporter translation, confirmation, H4 neuroglioma cells, luminescence (AID 1988); format: functional, cell-based
[10] = system: BJ; assay: cells; format: functional, cell-based; details: Homo sapiens
[11] = system: BJ; assay: cytotoxicity toward BJ-TERT-LT-ST fibroblasts, dose response, cell-based, RAS-independent, luminescence (AID 1935); format: functional; details: Homo sapiens;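 also: BJ fibroblasts immortalized with TERT plus LT and ST oncogenes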
[12] = cytotoxicity toward DRD oncogenic fibroblasts, dose response, cell-based, non-viral oncogenic, luminescence (AID 1934); format: functional; details: Homo sapiens
[13] = human group III sPLA2 inhibitors, dose response, biochemical, QFRET, IC50 (AID 743457);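 also: green fluorescence rise as the enzyme cleaves BODIPY PC-A2 in liposomes; potency for inhibition of the enzyme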
[14] = target: Neurotensin receptor type 1 (Homo sapiens, UniProt P30989); format: functional;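 also: Image-based confirmatory dose-response assay measuring agonist activity at NTR1; NTR1-expressing U2OS osteosarcoma cells imaged for beta-arrestin GFP spot formation; agonist potency where compounds increase beta-arrestin recruitment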
[15] = target: T2, Replicative DNA helicase DnaB (Mycobacterium tuberculosis, UniProt P9WMR3); assay: DnaB intein splicing inhibitors, dose response, biochemical, cell-free fluorescence (AID 449749); format: functional
T2 sequence (P9WMR3 whole entry): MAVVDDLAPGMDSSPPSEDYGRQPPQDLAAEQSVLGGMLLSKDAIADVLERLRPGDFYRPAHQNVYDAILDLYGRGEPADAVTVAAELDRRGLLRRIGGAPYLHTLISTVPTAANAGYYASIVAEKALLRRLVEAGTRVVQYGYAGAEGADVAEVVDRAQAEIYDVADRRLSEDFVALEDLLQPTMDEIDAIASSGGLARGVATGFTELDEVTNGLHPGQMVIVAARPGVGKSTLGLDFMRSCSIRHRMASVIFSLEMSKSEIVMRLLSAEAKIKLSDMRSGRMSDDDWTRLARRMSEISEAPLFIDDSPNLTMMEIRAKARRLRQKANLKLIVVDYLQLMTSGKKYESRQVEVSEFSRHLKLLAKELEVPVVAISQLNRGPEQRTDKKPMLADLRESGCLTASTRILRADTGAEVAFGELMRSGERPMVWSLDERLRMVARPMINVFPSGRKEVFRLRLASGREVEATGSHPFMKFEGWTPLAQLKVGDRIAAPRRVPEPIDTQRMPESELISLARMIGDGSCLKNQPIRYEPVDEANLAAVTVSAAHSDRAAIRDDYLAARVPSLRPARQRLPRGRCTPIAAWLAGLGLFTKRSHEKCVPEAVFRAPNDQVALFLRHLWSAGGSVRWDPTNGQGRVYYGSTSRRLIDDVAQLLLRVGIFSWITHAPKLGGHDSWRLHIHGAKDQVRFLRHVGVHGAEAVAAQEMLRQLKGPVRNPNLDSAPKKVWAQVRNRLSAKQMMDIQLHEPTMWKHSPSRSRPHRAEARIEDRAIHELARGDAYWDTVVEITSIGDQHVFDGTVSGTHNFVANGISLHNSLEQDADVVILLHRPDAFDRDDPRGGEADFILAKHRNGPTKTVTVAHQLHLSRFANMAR

[16] = target: T3, Protein RecA (Mycobacterium tuberculosis, UniProt P9WHJ3); assay: Fluorescence Cell-Free Homogeneous Dose Retest to Identify Inhibitors of RecA-Intein Splicing Activity. [Related pubchem assays (depositor defined):AID2097, AID2223, AID489010, AID492950]; format: functional
T3 sequence (P9WHJ3 whole entry): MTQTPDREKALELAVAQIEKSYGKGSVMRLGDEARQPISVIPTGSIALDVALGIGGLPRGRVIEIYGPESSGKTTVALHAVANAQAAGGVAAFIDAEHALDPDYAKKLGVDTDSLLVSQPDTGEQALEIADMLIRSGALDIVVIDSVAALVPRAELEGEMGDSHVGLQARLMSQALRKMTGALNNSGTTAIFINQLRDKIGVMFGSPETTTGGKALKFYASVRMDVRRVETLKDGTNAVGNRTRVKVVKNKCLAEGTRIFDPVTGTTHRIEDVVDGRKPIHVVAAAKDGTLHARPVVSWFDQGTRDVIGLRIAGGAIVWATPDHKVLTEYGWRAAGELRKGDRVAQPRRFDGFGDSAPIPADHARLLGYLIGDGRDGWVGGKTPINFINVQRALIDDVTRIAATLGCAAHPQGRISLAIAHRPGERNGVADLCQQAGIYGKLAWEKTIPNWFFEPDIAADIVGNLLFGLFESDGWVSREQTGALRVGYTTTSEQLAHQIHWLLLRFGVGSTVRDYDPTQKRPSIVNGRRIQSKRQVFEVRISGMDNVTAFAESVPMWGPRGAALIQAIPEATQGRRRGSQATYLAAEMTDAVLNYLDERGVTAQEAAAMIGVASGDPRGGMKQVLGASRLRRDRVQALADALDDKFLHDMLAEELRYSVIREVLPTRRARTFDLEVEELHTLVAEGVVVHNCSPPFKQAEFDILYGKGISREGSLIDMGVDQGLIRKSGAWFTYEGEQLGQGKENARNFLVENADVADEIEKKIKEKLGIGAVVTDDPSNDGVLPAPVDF

[17] = Shn3 3'UTR reporter inhibitors, dose response, cell-based, Clone20 osteoblasts, firefly luciferase, cherry-picked (AID 624132); format: functional;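 also: firefly luciferase luminescence from reporter carrying the Shn3 3'UTR in osteoblasts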
[18] = HepG2 cell cytotoxicity, dose response, cytotoxicity control for Shn3 inhibitor project, CellTiter-Glo, cherry-picked (AID 624134); format: functional, cell-based
[19] = control 3'UTR Renilla luciferase suppression, dose response, counter-screen for Shn3 inhibitor project, cell-based, Clone20-Shn3RL, cherry-picked (AID 624133); format: functional
[20] = target: NS3 (Hepatitis C virus, UniProt A3EZJ3); assay: PubChem AID 2173; parameters: species or system Hepacivirus hominis
[21] = system: Vero; assay: Vero cell cytotoxicity, cytotoxicity control for flavivirus capping enzyme inhibitors (AID 588742); format: functional; details: Chlorocebus sabaeus
[22] = system: H9c2; assay: cells; format: functional, cell-based; details: Rattus norvegicus, H9c2, Myocardium;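 also: confirmatory concentration-response retest of ultra-high-throughput screening hits for modulation of myocardial damage; cell death induced by hydrogen peroxide oxidative stress; compound pretreatment for 60 min then peroxide exposure for 2 h; potency is for protecting the cells against peroxide damage rather than for killing them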
[23] = target: Disintegrin and metalloproteinase domain-containing protein 17 (Homo sapiens, UniProt P78536); assay: exosite inhibitors of ADAM17, dose response, biochemical (AID 743260)
[24] = ADAM10 protease inhibitors, dose response, selectivity assay for ADAM17 exosite inhibitor project, biochemical, FRET peptide substrate, recombinant human ADAM10 (AID 743259);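 also: ADAM10 enzyme cleaving a FRET peptide substrate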
[25] = target: T4, SUMO-activating enzyme (Homo sapiens, UniProt Q9UBT2); assay: SUMOylation inhibitor hit validation, confirmation, SUMOylation inhibitor project, biochemical, AlphaScreen (AID 2018); format: functional
[26] = target: T4, SUMO-activating enzyme; assay: inhibitors of in vitro SUMOylation cascade, primary screen, biochemical, HTRF, uHTS (AID 2006); format: protein-complex assay
[27] = target: T5, Histone-lysine N-methyltransferase NSD2 (Homo sapiens, UniProt O96028); format: biochemical
T5 sequence (O96028 whole entry): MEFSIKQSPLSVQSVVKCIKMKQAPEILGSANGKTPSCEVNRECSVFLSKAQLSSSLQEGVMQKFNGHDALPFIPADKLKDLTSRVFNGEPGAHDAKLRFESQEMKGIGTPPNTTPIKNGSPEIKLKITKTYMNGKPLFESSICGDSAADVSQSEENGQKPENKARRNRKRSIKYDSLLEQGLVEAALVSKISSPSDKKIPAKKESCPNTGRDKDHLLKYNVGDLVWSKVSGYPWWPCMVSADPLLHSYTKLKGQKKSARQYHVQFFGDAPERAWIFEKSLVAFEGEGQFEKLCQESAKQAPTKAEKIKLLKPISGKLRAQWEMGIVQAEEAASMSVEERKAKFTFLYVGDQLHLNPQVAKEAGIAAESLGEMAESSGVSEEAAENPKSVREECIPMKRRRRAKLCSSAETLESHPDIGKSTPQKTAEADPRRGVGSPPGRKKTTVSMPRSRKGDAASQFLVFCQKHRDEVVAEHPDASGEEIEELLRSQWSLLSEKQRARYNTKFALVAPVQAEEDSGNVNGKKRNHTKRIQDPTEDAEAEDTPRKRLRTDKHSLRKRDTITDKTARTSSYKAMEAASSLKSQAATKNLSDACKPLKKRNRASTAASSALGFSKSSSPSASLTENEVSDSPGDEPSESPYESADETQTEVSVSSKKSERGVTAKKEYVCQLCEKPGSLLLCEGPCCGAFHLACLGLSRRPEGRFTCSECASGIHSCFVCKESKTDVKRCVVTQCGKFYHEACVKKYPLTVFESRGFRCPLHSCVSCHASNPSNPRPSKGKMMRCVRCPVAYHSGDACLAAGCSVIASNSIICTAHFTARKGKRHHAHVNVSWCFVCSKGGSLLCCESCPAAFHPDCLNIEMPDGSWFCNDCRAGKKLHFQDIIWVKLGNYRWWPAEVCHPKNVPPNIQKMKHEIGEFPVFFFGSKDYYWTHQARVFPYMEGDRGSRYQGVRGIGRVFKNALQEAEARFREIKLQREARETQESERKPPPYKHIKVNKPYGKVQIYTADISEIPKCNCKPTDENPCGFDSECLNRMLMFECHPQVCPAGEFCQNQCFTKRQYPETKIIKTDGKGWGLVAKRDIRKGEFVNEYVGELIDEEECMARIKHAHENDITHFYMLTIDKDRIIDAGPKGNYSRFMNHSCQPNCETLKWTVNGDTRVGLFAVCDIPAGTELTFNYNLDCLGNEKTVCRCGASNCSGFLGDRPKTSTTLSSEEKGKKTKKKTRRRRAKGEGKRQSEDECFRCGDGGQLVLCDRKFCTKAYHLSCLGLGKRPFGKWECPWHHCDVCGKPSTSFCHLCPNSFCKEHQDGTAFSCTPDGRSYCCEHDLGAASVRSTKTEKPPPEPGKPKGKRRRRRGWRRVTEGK

[28] = target: Eukaryotic translation initiation factor 4H (Homo sapiens, UniProt Q15056); assay: human eIF4H binding inhibitors, primary screen, translation initiation inhibitor project, biochemical, uHTS, fluorescence polarization (AID 2012)
[29] = target: Polyadenylate-binding protein 1 (Homo sapiens, UniProt P11940); assay: PABP poly(A) RNA binding inhibitors, primary screen, biochemical, fluorescence polarization, uHTS (AID 2014)
Sequence of Polyadenylate-binding protein 1 (P11940 whole entry): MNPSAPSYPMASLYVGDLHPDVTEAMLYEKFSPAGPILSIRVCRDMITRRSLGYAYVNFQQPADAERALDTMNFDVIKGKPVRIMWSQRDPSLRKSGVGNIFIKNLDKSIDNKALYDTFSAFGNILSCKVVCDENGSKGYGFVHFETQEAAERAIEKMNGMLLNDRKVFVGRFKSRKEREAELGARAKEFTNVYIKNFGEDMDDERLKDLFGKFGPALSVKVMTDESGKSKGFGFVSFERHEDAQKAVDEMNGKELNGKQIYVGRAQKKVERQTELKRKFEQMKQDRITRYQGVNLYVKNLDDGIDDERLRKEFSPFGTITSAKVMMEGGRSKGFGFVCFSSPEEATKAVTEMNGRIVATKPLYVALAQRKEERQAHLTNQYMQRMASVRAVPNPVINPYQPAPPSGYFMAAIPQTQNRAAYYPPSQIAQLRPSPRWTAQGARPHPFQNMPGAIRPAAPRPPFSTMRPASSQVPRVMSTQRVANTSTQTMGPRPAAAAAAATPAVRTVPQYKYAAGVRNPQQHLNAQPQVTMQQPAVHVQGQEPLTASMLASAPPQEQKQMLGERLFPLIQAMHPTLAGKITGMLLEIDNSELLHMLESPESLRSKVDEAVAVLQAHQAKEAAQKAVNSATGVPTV

T4 sequence (Q9UBE0 whole entry): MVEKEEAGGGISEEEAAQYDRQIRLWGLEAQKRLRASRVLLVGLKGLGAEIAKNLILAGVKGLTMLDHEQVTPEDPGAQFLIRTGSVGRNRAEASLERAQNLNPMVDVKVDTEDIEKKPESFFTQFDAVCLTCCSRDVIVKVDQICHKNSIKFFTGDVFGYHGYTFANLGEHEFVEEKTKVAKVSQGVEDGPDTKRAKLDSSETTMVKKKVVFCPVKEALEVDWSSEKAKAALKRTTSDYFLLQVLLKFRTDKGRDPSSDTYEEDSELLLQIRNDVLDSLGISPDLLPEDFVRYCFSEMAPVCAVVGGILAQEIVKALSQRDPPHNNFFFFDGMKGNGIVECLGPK
T4 sequence (Q9UBT2 whole entry): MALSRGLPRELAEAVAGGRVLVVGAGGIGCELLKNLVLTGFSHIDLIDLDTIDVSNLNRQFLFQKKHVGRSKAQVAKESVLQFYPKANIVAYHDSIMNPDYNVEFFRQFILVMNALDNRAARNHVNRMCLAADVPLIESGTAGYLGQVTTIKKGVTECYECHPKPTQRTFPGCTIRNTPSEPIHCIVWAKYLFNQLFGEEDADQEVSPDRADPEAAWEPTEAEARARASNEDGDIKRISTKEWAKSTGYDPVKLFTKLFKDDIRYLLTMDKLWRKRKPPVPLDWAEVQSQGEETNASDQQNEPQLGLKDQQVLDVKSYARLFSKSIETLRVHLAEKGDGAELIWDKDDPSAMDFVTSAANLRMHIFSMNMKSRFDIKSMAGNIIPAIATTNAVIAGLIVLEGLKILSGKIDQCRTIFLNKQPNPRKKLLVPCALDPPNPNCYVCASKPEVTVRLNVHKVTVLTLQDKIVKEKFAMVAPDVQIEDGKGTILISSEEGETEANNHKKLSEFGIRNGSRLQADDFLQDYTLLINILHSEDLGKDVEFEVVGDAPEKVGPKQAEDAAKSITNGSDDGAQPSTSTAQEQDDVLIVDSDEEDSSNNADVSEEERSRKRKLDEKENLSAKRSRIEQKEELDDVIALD
Sequence of X-box-binding protein 1 (P17861 whole entry): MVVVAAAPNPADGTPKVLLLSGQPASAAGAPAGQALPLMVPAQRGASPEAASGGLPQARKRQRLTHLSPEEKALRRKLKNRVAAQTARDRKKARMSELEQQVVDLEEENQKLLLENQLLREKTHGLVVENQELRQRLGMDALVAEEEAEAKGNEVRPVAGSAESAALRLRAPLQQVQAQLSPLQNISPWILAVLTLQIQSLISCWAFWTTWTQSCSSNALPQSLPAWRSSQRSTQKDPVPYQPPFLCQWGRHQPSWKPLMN
Sequence of Neurotensin receptor type 1 (P30989 whole entry): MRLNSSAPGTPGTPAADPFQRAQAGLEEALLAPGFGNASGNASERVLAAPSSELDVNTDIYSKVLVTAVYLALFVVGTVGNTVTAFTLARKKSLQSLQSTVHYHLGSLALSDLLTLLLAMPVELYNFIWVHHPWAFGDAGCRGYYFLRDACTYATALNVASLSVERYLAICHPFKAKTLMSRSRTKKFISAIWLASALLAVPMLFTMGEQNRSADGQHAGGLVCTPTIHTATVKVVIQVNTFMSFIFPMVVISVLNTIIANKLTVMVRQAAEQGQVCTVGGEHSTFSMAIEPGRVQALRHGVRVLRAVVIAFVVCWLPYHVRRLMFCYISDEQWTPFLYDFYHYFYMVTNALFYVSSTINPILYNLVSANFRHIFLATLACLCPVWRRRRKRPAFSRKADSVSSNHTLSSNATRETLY
Sequence of NS3 (A3EZJ3 whole entry): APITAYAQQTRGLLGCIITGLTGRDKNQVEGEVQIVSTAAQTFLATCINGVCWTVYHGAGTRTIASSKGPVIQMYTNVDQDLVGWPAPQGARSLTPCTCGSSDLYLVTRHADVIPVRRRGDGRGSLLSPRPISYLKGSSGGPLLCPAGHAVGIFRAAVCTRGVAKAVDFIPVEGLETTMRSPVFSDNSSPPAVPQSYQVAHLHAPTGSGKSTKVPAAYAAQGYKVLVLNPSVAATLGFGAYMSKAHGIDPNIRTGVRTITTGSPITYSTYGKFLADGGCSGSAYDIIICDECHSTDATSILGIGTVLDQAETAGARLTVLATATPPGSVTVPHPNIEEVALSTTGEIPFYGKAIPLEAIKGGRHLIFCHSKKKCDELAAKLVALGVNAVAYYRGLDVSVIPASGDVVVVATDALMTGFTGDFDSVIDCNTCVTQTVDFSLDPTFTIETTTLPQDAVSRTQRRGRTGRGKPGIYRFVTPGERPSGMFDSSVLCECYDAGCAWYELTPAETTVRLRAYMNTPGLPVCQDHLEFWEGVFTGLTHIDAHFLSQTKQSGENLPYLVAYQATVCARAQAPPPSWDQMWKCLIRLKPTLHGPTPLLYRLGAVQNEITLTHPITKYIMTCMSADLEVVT
Sequence of Lysosomal acid glucosylceramidase (P04062 whole entry): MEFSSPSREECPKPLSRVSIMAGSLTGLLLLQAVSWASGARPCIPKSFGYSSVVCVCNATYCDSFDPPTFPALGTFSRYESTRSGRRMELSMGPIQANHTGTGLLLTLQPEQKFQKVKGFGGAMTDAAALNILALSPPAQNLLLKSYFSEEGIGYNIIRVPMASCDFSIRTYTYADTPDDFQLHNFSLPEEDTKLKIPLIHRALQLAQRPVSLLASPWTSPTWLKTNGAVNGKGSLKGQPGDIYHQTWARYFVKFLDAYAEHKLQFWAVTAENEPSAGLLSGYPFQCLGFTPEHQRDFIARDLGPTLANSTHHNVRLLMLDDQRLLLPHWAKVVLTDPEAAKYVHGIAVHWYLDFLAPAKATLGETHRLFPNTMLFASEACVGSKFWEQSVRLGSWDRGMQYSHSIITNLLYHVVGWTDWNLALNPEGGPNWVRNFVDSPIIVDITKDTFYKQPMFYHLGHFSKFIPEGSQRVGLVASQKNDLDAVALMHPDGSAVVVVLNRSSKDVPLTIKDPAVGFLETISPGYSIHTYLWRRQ
Sequence of Disintegrin and metalloproteinase domain-containing protein 17 (P78536 whole entry, the tested form may be a part): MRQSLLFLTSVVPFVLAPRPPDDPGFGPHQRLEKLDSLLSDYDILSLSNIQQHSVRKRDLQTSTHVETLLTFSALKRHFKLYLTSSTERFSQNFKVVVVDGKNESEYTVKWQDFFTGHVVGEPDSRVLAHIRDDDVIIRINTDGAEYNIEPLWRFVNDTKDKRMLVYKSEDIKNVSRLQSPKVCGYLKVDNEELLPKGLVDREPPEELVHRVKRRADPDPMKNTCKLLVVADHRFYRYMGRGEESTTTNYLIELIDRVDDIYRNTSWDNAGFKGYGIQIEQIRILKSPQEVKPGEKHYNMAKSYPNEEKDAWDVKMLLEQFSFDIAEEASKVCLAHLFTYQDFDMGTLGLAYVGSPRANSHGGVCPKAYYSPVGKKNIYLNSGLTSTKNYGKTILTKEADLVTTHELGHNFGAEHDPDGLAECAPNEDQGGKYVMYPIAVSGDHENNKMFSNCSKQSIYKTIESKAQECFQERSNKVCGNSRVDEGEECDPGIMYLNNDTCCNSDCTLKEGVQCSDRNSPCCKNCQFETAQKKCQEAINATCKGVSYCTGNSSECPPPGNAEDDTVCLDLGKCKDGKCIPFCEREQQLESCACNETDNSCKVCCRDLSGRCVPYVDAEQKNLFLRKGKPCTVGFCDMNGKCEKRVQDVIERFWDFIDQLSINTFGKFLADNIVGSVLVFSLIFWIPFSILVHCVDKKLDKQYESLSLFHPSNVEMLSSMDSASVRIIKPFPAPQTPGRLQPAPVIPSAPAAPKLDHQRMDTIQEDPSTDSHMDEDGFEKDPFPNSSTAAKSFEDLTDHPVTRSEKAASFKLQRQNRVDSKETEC

## CC(OC(=O)c1nsc(Cl)c1Cl)C(=O)NCc1cccs1 (stereo unspecified)
[1]
  EC50: > 50 µM (not active)

## CCC(C)Sc1nc2c(c(=O)[nH]c(=O)n2C)n1Cc1ccc(Cl)cc1 (stereo unspecified)
[2]
  Absolute IC50 (XBP1): 10 µM

## CC(C)Oc1ccccc1C1CC(=O)Nc2cc3c(cc21)OCO3 (stereo unspecified)
[3]
  IC50: > 25 µM (inactive)
[4]
  IC50: > 80 µM (inactive)

## CCOc1ccc(N/C=C2/C(=O)NC(=O)N(C(C)(C)C)C2=O)cc1
[2]
  Absolute IC50 (XBP1): 10 µM

## CCOc1cc(CNc2ccc3c(c2)OCCO3)cc(Br)c1OCC
[5]
  EC50: 8.47 µM (inconclusive)
[6]
  EC50: 1.85 µM (active)
[7]
  EC50: > 120 µM (not active)
[8]
  EC50: 2.48 µM (active)
[9]
  EC50: 1.58 µM (active)
[10]
  EC50: 15.6 µM (active)
[3]
  IC50: 2.51 µM (active)
[11]
  EC50: 2.43 µM (inconclusive)
[12]
  EC50: 1.6 µM (active)
[13]
  IC50: > 122 µM (inactive)

## CC(CCc1ccccc1)NC(=O)COC(=O)c1ccc(S(C)(=O)=O)c([N+](=O)[O-])c1 (stereo unspecified)
[14]
  EC50: 9.29 µM (active)
[15]
  AC50: 10 µM (active)
[16]
  EC50: 3.7 µM (active)
[17]
  AC50: 3.34 µM (active)
[18]
  AC50: 39.4 µM (active)
[19]
  AC50: 9.93 µM (active)

## CCOc1ccc(/C=C/C(=O)c2cc(Br)ccc(=O)c2O)cc1
[20]
  IC50: 4.35 µM (active)
[21]
  CC50: 7 µM (active)
[22]
  IC50: 6.72 µM (active)
[23]
  IC50: 11.4 µM (inactive)
[24]
  IC50: 17.6 µM (inactive)

## COc1cc2c(C#N)c(N3CCCC3)nc(N)c2c(N)n1
[25]
  IC50: 5.34 µM (active)
[26]
  IC50: 3.79 µM (active)
[27]
  AC50: 9.62 µM (active)

## O=C(NCC(=O)N1CCN(c2ccccc2O)CC1)c1ccc2c(c1)OCO2
[28]
  IC50: 28.2 µM (active)
[29]
  IC50: > 100 µM (inactive)
